These results are taken from PubChem BioAssay AID330 (DTP/NCI, 2004).

The assay deals with P388 leukemia ip, CD2F1 mice, survival T/C. The experiment in a line: NCI In Vivo Anticancer Drug Screen. Data for tumor model P388 Leukemia (intraperitoneal) in CD2F1 (CDF1) mice. The settings on record: endpoint: median survival time, higher = longer survival. An outline of the steps: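 Mice carrying the transplanted tumor received test compound or vehicle. Survival was recorded in each group, and the value is the treated-group measurement divided by that of the vehicle-treated control group.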

Setting [1] is: dose: 30.0 mg/kg/injection, schedule: Q01DX005 (ip), vehicle: saline with Tween-80.
The mark [2] stands for this setting: dose: 120.0 mg/kg/injection, schedule: Q01DX005 (ip), vehicle: saline with Tween-80.
The mark [3] stands for this setting: dose: 240.0 mg/kg/injection, schedule: Q01DX005 (ip), vehicle: saline with Tween-80.
[4] abbreviates: dose: 50.0 mg/kg/injection, schedule: Q01DX005 (ip), vehicle: saline with Tween-80.
Setting [5] is: dose: 100.0 mg/kg/injection, schedule: Q01DX005 (ip), vehicle: saline with Tween-80.
The mark [6] stands for this setting: dose: 50.0 mg/kg/injection, schedule: Q01DX009 (ip), vehicle: saline.
The mark [7] stands for this setting: dose: 100.0 mg/kg/injection, schedule: Q01DX009 (ip), vehicle: saline.
The mark [8] stands for this setting: dose: 200.0 mg/kg/injection, schedule: Q01DX009 (ip), vehicle: saline.
Setting [9] is: dose: 100.0 mg/kg/injection, schedule: Q04DX002 (ip), vehicle: saline with Tween-80.
Where [10] appears, read: dose: 200.0 mg/kg/injection, schedule: Q04DX002 (ip), vehicle: saline with Tween-80.
Setting [11] is: dose: 50.0 mg/kg/injection, schedule: Q01DX009 (ip), vehicle: saline with Tween-80.
[12] abbreviates: dose: 100.0 mg/kg/injection, schedule: Q01DX009 (ip), vehicle: saline with Tween-80.
Setting [13] is: dose: 200.0 mg/kg/injection, schedule: Q01DX009 (ip), vehicle: saline with Tween-80.
Where [14] appears, read: dose: 50.0 mg/kg/injection, schedule: Q01DX009 (ip), vehicle: Klucel (hydroxypropylcellulose) (HPC).
[15] abbreviates: dose: 100.0 mg/kg/injection, schedule: Q01DX009 (ip), vehicle: Klucel (hydroxypropylcellulose) (HPC).
Where [16] appears, read: dose: 200.0 mg/kg/injection, schedule: Q01DX009 (ip), vehicle: Klucel (hydroxypropylcellulose) (HPC).
[17] abbreviates: dose: 50.0 mg/kg/injection, schedule: Q01DX005 (ip), vehicle: Klucel (hydroxypropylcellulose) (HPC).
The mark [18] stands for this setting: dose: 200.0 mg/kg/injection, schedule: Q01DX005 (ip), vehicle: saline with Tween-80.
Setting [19] is: dose: 60.0 mg/kg/injection, schedule: Q01DX005 (ip), vehicle: saline with Tween-80.

Values joined by “and” are separate entries in the source; they are usually repeats but may differ in a detail not shown here. Equal entries are not always repeated. Toxic doses and inconclusive results are not listed.

In the case of `O=C(Nc1cccc2c(NC(=O)N3CCCCC3)cccc12)N1CCCCC1`, the T/C reads like this: (dose: 15.0 mg/kg/injection, schedule: Q01DX005 (ip), vehicle: saline with Tween-80) 94 % of control; under setting [1], 93 % of control; under setting [2], 86 % of control; under setting [3], 100 % of control.
For `CC(=O)C(=Cc1ccc(Cl)cc1)C(C)=O`, the T/C is 97 % of control under setting [4] and 101 % of control under setting [5].
On to `O=C1OC(=O)C2C3C=CC(C4C=C(c5ccccc5)C43)C12` (stereo unspecified), for which the T/C reads like this: under setting [6], 106 % of control; under setting [7], 92 % of control; under setting [8], 107 % of control.
`COc1cccc(N=Nc2c(-c3ccccc3)nn(C(N)=S)c2-c2ccccc2)c1`: the T/C by setting is: under setting [9], 98 % of control; under setting [10], 95 % of control; (dose: 400.0 mg/kg/injection, schedule: Q04DX002 (ip), vehicle: saline with Tween-80) 88 % of control.
As to `N#CN=[N+]([O-])c1ccc([N+](=O)[O-])cc1`, the T/C was 101 % of control (dose: 1.56 mg/kg/injection, schedule: Q01DX001 (ip), vehicle: Klucel (hydroxypropylcellulose) (HPC)); 99 % of control (dose: 3.12 mg/kg/injection, schedule: Q01DX001 (ip), vehicle: Klucel (hydroxypropylcellulose) (HPC)); 110 % of control (dose: 6.25 mg/kg/injection, schedule: Q01DX001 (ip), vehicle: Klucel (hydroxypropylcellulose) (HPC)); 101 % of control (dose: 6.25 mg/kg/injection, schedule: Q04DX003 (ip), vehicle: Klucel (hydroxypropylcellulose) (HPC)).
On to `C[n+]1cccc(C2(O)CCCC2)c1`, for which the T/C was 113 % of control under setting [11], 104 % of control under setting [12] and 99 % of control under setting [13].
Turning to `O=c1[nH]c(=O)n(-c2cccc3ccccc23)c(=O)n1-c1cccc2ccccc12`, the T/C is 100 % of control under setting [14], 108 % of control under setting [15] and 105 % of control under setting [16].
Turning to `Clc1ccccc1C(Nc1nc2ccccc2s1)Nc1nc2ccccc2s1`, the T/C under setting [17] is 102 % of control; the T/C (dose: 100.0 mg/kg/injection, schedule: Q01DX005 (ip), vehicle: Klucel (hydroxypropylcellulose) (HPC)) was 99 % of control; the T/C (dose: 200.0 mg/kg/injection, schedule: Q01DX005 (ip), vehicle: Klucel (hydroxypropylcellulose) (HPC)) was 99 % of control.
Take `Cc1oc(-c2ccccc2)nc1C(N)=O`: the T/C is 106 % of control and 89 % of control and 95 % of control under setting [11]; 101 % of control and 91 % of control and 96 % of control under setting [12]; 99 % of control and 100 % of control under setting [13].
In the case of `Cc1oc2ccccc2c(=O)c1CN(CCO)CCO`, the T/C by setting is: (dose: 60.0 mg/kg/injection, schedule: Q01DX005 (ip), vehicle: saline) 95 % of control; (dose: 120.0 mg/kg/injection, schedule: Q01DX005 (ip), vehicle: saline) 101 % of control.
`COc1cccc2c1C(=O)c1c(O)c3c(c(O)c1C2=O)C[C@@](O)(/C(C)=N/NS(C)(=O)=O)C[C@@H]3OC1CC(N)C(O)C(C)O1` (stereo partly specified): the T/C was 157 % of control (dose: 3.13 mg/kg/injection, schedule: Q01DX009 (ip), vehicle: water); 164 % of control and 166 % of control (dose: 6.25 mg/kg/injection, schedule: Q01DX009 (ip), vehicle: water); 183 % of control and 187 % of control (dose: 12.5 mg/kg/injection, schedule: Q01DX009 (ip), vehicle: water); 166 % of control (dose: 25.0 mg/kg/injection, schedule: Q01DX009 (ip), vehicle: saline); 117 % of control and 201 % of control (dose: 25.0 mg/kg/injection, schedule: Q01DX009 (ip), vehicle: water); 193 % of control under setting [6]. Besides, the T/C by setting is: (dose: 50.0 mg/kg/injection, schedule: Q01DX009 (ip), vehicle: water) 99 % of control; under setting [7], 283 % of control; under setting [8], 108 % of control.
For the compound `COc1cc2ccc3c(c2cc1OC)CN(Cc1ccccc1)CC3`, the T/C was 100 % of control under setting [15]; 100 % of control under setting [16]; 109 % of control (dose: 400.0 mg/kg/injection, schedule: Q01DX009 (ip), vehicle: Klucel (hydroxypropylcellulose) (HPC)).
Turning to `OC(CCl)c1ccc2ccc3c(c2c1)Nc1ccccc1S3` (stereo unspecified), the T/C (dose: 100.0 mg/kg/injection, schedule: Q04DX003 (ip), vehicle: Klucel (hydroxypropylcellulose) (HPC)) is 107 % of control; the T/C (dose: 200.0 mg/kg/injection, schedule: Q04DX003 (ip), vehicle: Klucel (hydroxypropylcellulose) (HPC)) is 104 % of control; the T/C (dose: 400.0 mg/kg/injection, schedule: Q04DX003 (ip), vehicle: Klucel (hydroxypropylcellulose) (HPC)) is 102 % of control.
In the case of `O=S(=O)(Nc1ccc(Cl)c(C(F)(F)F)c1)c1ccc(F)cc1`, the T/C runs as follows: under setting [4], 100 % of control; under setting [5], 91 % of control; under setting [18], 98 % of control.
Turning to `CCOc1cccc(C=NCCS)c1O`, the T/C reads like this: under setting [4], 92 % of control; under setting [5], 90 % of control; under setting [18], 86 % of control.
As to `CC(=O)c1ccccc1N=O`, the T/C (dose: 50.0 mg/kg/injection, schedule: Q01DX001 (ip), vehicle: other) was 102 % of control; the T/C (dose: 100.0 mg/kg/injection, schedule: Q01DX001 (ip), vehicle: other) was 101 % of control and 107 % of control; the T/C (dose: 200.0 mg/kg/injection, schedule: Q01DX001 (ip), vehicle: other) was 100 % of control; the T/C (dose: 400.0 mg/kg/injection, schedule: Q01DX001 (ip), vehicle: other) is 102 % of control.
On to `COC(=O)Nc1nc2ccc(SC)cc2c(=O)[nH]1`, for which the T/C by setting is: under setting [14], 103 % of control and 105 % of control; under setting [15], 113 % of control.
Turning to `O=C1CN(c2ccccc2)C(=O)C1C(=O)Nc1ccc(Cl)c(Cl)c1` (stereo unspecified), the T/C was 117 % of control under setting [1]; 121 % of control and 123 % of control under setting [19]; 90 % of control under setting [3].
With `COc1ccc(CCN2CC(=O)N3CSCC3C2=O)cc1OC` (stereo unspecified), the T/C reads like this: under setting [19], 100 % of control; under setting [2], 95 % of control; under setting [3], 95 % of control.
Turning to `CC1CC12C(=O)C1=C(C(=O)C2O)C2(C)CCCC(C)(COC=O)C2C(O)C1OC=O` (stereo unspecified), the T/C is, setting by setting: (dose: 6.25 mg/kg/injection, schedule: Q01DX005 (ip), vehicle: Klucel (hydroxypropylcellulose) (HPC)) 105 % of control; (dose: 12.5 mg/kg/injection, schedule: Q01DX005 (ip), vehicle: Klucel (hydroxypropylcellulose) (HPC)) 105 % of control; (dose: 25.0 mg/kg/injection, schedule: Q01DX005 (ip), vehicle: Klucel (hydroxypropylcellulose) (HPC)) 115 % of control; under setting [17], 101 % of control.
`[Mn+2].[NH-]CC(=O)NC(Cc1ccccc1)C(=O)O.[NH-]CC(=O)NC(Cc1ccccc1)C(=O)O` (stereo unspecified): the T/C by setting is: (dose: 100.0 mg/kg/injection, schedule: Q04DX003 (ip), vehicle: saline) 113 % of control; (dose: 200.0 mg/kg/injection, schedule: Q04DX003 (ip), vehicle: saline) 116 % of control.
With `CC(C)N(C(=O)SCC(Cl)=C(Cl)Cl)C(C)C`, the T/C is 100 % of control under setting [19], 103 % of control under setting [2] and 102 % of control under setting [3].
On to `CC1C(=O)C23CC1CCC2C12COC(=O)C1C(C)(C)C(=O)CC2OC3=O` (stereo unspecified), for which the T/C was 105 % of control (dose: 50.0 mg/kg/injection, schedule: Q04DX002 (ip), vehicle: saline with Tween-80); 93 % of control under setting [9]; 94 % of control under setting [10].
Consider `CONC(=O)N/N=C\c1c(CO)cnc(C)c1O`, for which the T/C runs as follows: (dose: 7.5 mg/kg/injection, schedule: Q01DX005 (ip), vehicle: Klucel (hydroxypropylcellulose) (HPC)) 105 % of control; (dose: 15.0 mg/kg/injection, schedule: Q01DX005 (ip), vehicle: Klucel (hydroxypropylcellulose) (HPC)) 102 % of control; (dose: 30.0 mg/kg/injection, schedule: Q01DX005 (ip), vehicle: Klucel (hydroxypropylcellulose) (HPC)) 102 % of control.
Take `CCCCCC/C=N/N1C(=O)C2C3C=CC(O3)C2C1=O` (stereo unspecified): the T/C under setting [4] is 103 % of control, the T/C under setting [5] was 108 % of control and the T/C under setting [18] was 95 % of control.
